For 16 molecules, IC50 and EC50 results are on record in patent US10947210B2 (priority 2015, dated 2021).

In experiment [1] the target is HCV RNA-dependent RNA polymerase (NS5B) (Hepatitis C virus genotype 1b (isolate BK) (HCV), UniProt P26663). In words: RNA-Dependent RNA HCV NS5B (polymerase) Assay and IC50 Determination. It counts as biochemical. The following applies: purified HCV NS5B polymerase, polyA:U16 substrate, 32P-UTP incorporation. The gist of the method: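 Purified NS5B was incubated with 0.5 uM polyA:U16, 10 μM UTP plus ^32P-UTP in 50 mM Hepes-KOH pH 7.5, 5 mM MgCl2, 5 mM DTT, 2% glycerol and 0.01% Triton X-100. Inhibitor reactions ran 60 min at 37° C, and radiolabelled RNA product was quantified after filter capture. IC50 values were obtained from concentration series.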

Experiment [2] concerns HCV subgenomic RNA replicon in Huh-luc/neo-ET cells. The experiment in a line: HCV Replicon Assay and EC50 Determination. It counts as cell-based. The following applies: Hepatitis C virus, 72 hours, luciferase reporter activity. As for the experimental part: HCV Replicon Assay and EC50 Determination.
HCV replicon assay is based on the luciferase reporter cell line (Huh-luc/neo-ET). This reporter cell line is a human liver carcinoma cell line (Huh-7) stably transfected with an autonomously replicating bicistronic HCV subgenomic RNA replicon (Lohmann et al., 1999, Science, 285, 110-113). Inhibition of HCV RNA replication was monitored through analysis of reporter luciferase activity. Briefly, HCV replicon cells were incubated with inhibitors for 72 hours at 37° C. After the incubation, duplicate plates were treated and incubated in parallel for assessment of cellular toxicity by XTT staining and anti-HCV activity by measurement of luciferase reporter activity. Either human interferon alpha 2B or ribavirin was used as a reference compound. EC50 values were determined using GraFit (Erithaus software) or Excel.
Table 2 presents EC50 data obtained using this HCV replicaon assay to test representative compounds. Data are presented as follows: “+++” means <0.1 μM; “++” means ≥0.1 μM and <1.0 μM; “+” means ≥1.0 μM.

Read-outs that look alike come from different tables or passages of the source. Some results are limits rather than exact numbers.

HCV RNA-dependent RNA polymerase (NS5B), sequence (P26663 2420-3010): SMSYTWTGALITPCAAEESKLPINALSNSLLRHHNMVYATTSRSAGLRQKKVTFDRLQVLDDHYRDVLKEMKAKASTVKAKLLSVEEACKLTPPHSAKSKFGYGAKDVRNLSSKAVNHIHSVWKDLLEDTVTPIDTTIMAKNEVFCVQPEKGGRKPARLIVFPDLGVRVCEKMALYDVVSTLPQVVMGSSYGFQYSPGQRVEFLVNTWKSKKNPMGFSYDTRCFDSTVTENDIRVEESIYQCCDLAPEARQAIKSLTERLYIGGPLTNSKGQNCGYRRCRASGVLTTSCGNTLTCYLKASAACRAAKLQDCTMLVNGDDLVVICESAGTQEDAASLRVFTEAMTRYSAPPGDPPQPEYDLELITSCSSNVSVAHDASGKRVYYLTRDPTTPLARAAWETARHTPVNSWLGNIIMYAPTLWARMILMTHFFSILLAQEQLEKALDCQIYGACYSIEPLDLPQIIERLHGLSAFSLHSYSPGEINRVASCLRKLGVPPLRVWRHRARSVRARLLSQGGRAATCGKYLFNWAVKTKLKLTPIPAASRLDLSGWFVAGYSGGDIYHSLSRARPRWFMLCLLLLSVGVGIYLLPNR

What is called IC50 is the concentration at which inhibition is half-maximal. The term EC50 denotes the concentration that produces a half-maximal response. Low values mean an effect from little substance, high ones a need for much substance. On to `CNC(=O)c1c(-c2ccc(F)cc2)oc2cc(N(CCOCCOCc3cccc(C(C)=O)c3)S(C)(=O)=O)c(C3CC3)cc12` [Compound 02-8A, 6-(N-(2-(2-(3-Acetylbenzyloxy)-ethoxy)-ethyl)-methylsulfonamido)-5-cyclopropyl-2-(4-fluorophenyl)-N-methylbenzofuran-3-carboxamide], for which the IC50 in experiment [1] (IC50 (μM)) is above 1 µM. Besides, the EC50 in experiment [2] was below 100 nM. With `CNC(=O)c1c(-c2ccc(F)cc2)oc2cc(N(CCOCCOCc3cccc(C(=O)/C=C(\O)C(=O)O)c3)S(C)(=O)=O)c(C3CC3)cc12` [Compound 02-10A, 4-{3-[2-(2-{[5-Cyclopropyl-2-(4-fluoro-phenyl)-3-methylcarbamoyl-benzofuran-6-yl]-methanesulfonyl-amino}-ethoxy)-ethoxymethyl]-phenyl}-2-hydroxy-4-oxo-but-2-enoic Acid], the IC50 in experiment [1] (read-out: IC50) lay within 0.1 to 1 µM. Besides, in experiment [2], the EC50 is below 100 nM. The corresponding values for `CNC(=O)c1c(-c2ccc(F)cc2)oc2cc(N(CCOCCOCCOCCOCCOCCOCc3cccc(C(=O)/C=C(\O)C(=O)O)c3)S(C)(=O)=O)c(C3CC3)cc12` [Compound 02-10E, 4-(3-{2-[2-(2-{2-[2-(2-{[5-Cyclopropyl-2-(4-fluoro-phenyl)-3-methylcarbamoyl-benzofuran-6-yl]-methanesulfonyl-amino}-ethoxy)-ethoxy]-ethoxy}-ethoxy)-ethoxy]-ethoxymethyl}-phenyl)-2-hydroxy-4-oxo-but-2-enoic Acid] are above 1 µM and 100 to 1000 nM.

For the molecule `CNC(=O)c1c(-c2ccc(F)cc2)oc2cc(N(CCOCCOCc3ccc(C(=O)/C=C(\O)C(=O)O)cc3)S(C)(=O)=O)c(C3CC3)cc12` [Compound 02-10F, 4-{4-[2-(2-{[5-Cyclopropyl-2-(4-fluoro-phenyl)-3-methylcarbamoyl-benzofuran-6-yl]-methanesulfonyl-amino}-ethoxy)-ethoxymethyl]-phenyl}-2-hydroxy-4-oxo-but-2-enoic Acid], the IC50 in experiment [1] (read-out: IC50) is above 1 µM. For the same molecule, the EC50 in experiment [2] was below 100 nM.

`CNC(=O)c1c(-c2ccc(F)cc2)oc2cc(N(CCOCCCOCc3cccc(C(=O)/C=C(\O)C(=O)O)c3)S(C)(=O)=O)c(C3CC3)cc12` [Compound 03-8B, 4-{3-[3-(2-{[5-Cyclopropyl-2-(4-fluoro-phenyl)-3-methylcarbamoyl-benzofuran-6-yl]-methanesulfonyl-amino}-ethoxy)-propoxymethyl]-phenyl}-2-hydroxy-4-oxo-but-2-enoic Acid]: in experiment [1] (read-out: IC50), the IC50 was above 1 µM. In experiment [2], this molecule had an EC50 below 100 nM. On to `CNC(=O)c1c(-c2ccc(F)cc2)oc2cc(N(CCOCCOCCOCCO)S(C)(=O)=O)c(C3CC3)cc12` [Compound 04-5, 5-Cyclopropyl-2-(4-fluorophenyl)-6-(N-(2-(2-(2-(2-hydroxyethoxy)-ethoxy)-ethoxy)-ethyl) Methylsulfonamido)-N-methylbenzofuran-3-carboxamide], for which the IC50 in experiment [1] (IC50 (μM)) is above 1 µM. The same molecule registered an EC50 in experiment [2] of 100 to 1000 nM. As to `CNC(=O)c1c(-c2ccc(F)cc2)oc2cc(N(CCOCCOCc3ccccc3C(=O)O)S(C)(=O)=O)c(C3CC3)cc12` [Compound 06-7A, 2-[2-(2-{[5-Cyclopropyl-2-(4-fluoro-phenyl)-3-methylcarbamoyl-benzofuran-6-yl]-methanesulfonyl-amino}-ethoxy)-ethoxymethyl]-benzoic Acid], the IC50 in experiment [1] (read-out: IC50) is 0.1 to 1 µM. This molecule also came in with an EC50 in experiment [2] below 100 nM.

Regarding `CNC(=O)c1c(-c2ccc(F)cc2)oc2cc(N(CCOCCOCc3ccc(C(=O)O)cc3)S(C)(=O)=O)c(C3CC3)cc12` [Compound 06-7B, 4-[2-(2-{[5-Cyclopropyl-2-(4-fluoro-phenyl)-3-methylcarbamoyl-benzofuran-6-yl]-methanesulfonyl-amino}-ethoxy)-ethoxymethyl]-benzoic Acid], in experiment [1] (read-out: IC50), the IC50 lay in the range of 0.1 to 1 µM. Also, in experiment [2], the EC50 lay in the range of 100 to 1000 nM. The like results for `CNC(=O)c1c(-c2ccc(F)cc2)oc2cc(N(CCOCCOCc3cccc(C(=O)O)c3)S(C)(=O)=O)c(C3CC3)cc12` [Compound 06-7C, 3-[2-(2-{[5-Cyclopropyl-2-(4-fluoro-phenyl)-3-methylcarbamoyl-benzofuran-6-yl]-methanesulfonyl-amino}-ethoxy)-ethoxymethyl]-benzoic Acid] were, in that order, 0.1 to 1 µM and below 100 nM. Consider `CNC(=O)c1c(-c2ccc(F)cc2)oc2cc(N(CCOCCOCCOCCCc3cccc(C(=O)CC(=O)C(=O)O)c3)S(C)(=O)=O)c(C3CC3)cc12` [Compound 30-10, 4-[3-(3-{2-[2-(2-{[5-Cyclopropyl-2-(4-fluoro-phenyl)-3-methylcarbamoyl-benzofuran-6-yl]-methanesulfonyl-amino}-ethoxy)-ethoxy]-ethoxy}-propyl)-phenyl]-2,4-dioxo-butyric acid], for which the IC50 in experiment [1] (read-out: IC50) was above 1 µM.

`CNC(=O)c1c(-c2ccc(F)cc2)oc2cc(N(CCOCCOCc3ccc(OC)c(C(=O)OC)c3)S(C)(=O)=O)c(C3CC3)cc12` [Compound 30-11, 5-[2-(2-{[5-Cyclopropyl-2-(4-fluoro-phenyl)-3-methylcarbamoyl-benzofuran-6-yl]-methanesulfonyl-amino}-ethoxy)-ethoxymethyl]-2-methoxy-benzoic acid methyl ester]: the IC50 in experiment [1] (read-out: IC50) is above 1 µM.

On to `CNC(=O)c1c(-c2ccc(F)cc2)oc2cc(N(CCOCCOCCCCc3cccc(C(=O)CC(=O)C(=O)O)c3)S(C)(=O)=O)c(C3CC3)cc12` [Compound 30-12, 4-(3-{4-[2-(2-{[5-Cyclopropyl-2-(4-fluoro-phenyl)-3-methylcarbamoyl-benzofuran-6-yl]-methanesulfonyl-amino}-ethoxy)-ethoxy]-butyl}-phenyl)-2,4-dioxo-butyric acid], for which the IC50 in experiment [1] (read-out: IC50) was above 1 µM.

Consider `CNC(=O)c1c(-c2ccc(F)cc2)oc2cc(N(CCOCCOCCOCCOCCOCCOCc3ccc(C(=O)O)cc3)S(C)(=O)=O)c(C3CC3)cc12` [Compound 30-13, 4-{2-[2-(2-{2-[2-(2-{[5-Cyclopropyl-2-(4-fluoro-phenyl)-3-methylcarbamoyl-benzofuran-6-yl]-methanesulfonyl-amino}-ethoxy)-ethoxy]-ethoxy}-ethoxy)-ethoxy]-ethoxymethyl}-benzoic acid], for which the IC50 in experiment [1] (read-out: IC50) was above 1 µM.

On to `CCOC(=O)c1cc(COCCOCCN(c2cc3oc(-c4ccc(F)cc4)c(C(=O)NC)c3cc2C2CC2)S(C)(=O)=O)ccc1F` [Compound 30-14, 5-[2-(2-{[5-Cyclopropyl-2-(4-fluoro-phenyl)-3-methylcarbamoyl-benzofuran-6-yl]-methanesulfonyl-amino}-ethoxy)-ethoxymethyl]-2-fluoro-benzoic acid ethyl ester], for which, in experiment [1] (read-out: IC50), the IC50 was above 1 µM.

For the molecule `CNC(=O)c1c(-c2ccc(F)cc2)oc2cc(N(CCOCCOCCOCCCCCc3cccc(C(=O)CC(=O)C(=O)O)c3)S(C)(=O)=O)c(C3CC3)cc12` [Compound 30-15, 4-[3-(5-{2-[2-(2-{[5-Cyclopropyl-2-(4-fluoro-phenyl)-3-methylcarbamoyl-benzofuran-6-yl]-methanesulfonyl-amino}-ethoxy)-ethoxy]-ethoxy}-pentyl)-phenyl]-2,4-dioxo-butyric acid], the IC50 in experiment [1] (read-out: IC50) was above 1 µM. On the same count and under the same terms, the value for `CNC(=O)c1c(-c2ccc(F)cc2)oc2cc(N(CCOCCOCCOCCCCc3cccc(C(=O)CC(=O)C(=O)O)c3)S(C)(=O)=O)c(C3CC3)cc12` [Compound 30-16, 4-[3-(4-{2-[2-(2-{[5-Cyclopropyl-2-(4-fluoro-phenyl)-3-methylcarbamoyl-benzofuran-6-yl]-methanesulfonyl-amino}-ethoxy)-ethoxy]-ethoxy}-butyl)-phenyl]-2,4-dioxo-butyric acid] was above 1 µM.
